Data reported in patent US20240181087A1, “COMPOSITION FOR CONTRAST IMAGING OF CANCER” (ASTELLAS PHARMA INC., priority 2021, published 2024).

What was measured:
Assay type in all cases: in vivo
[1] = test system: mouse bladder cancer cell MB49; assay: near-infrared fluorescence observation of bladder after tail vein administration, MB49 bladder cancer mouse model
Method: Two bladder cancer mouse models (weight: about 20 g), having mouse bladder cancer cell MB49 transplanted in the bladder mucosa, and then grown for 3 weeks or 4 weeks, were used. To the tail vein of each of the mice, 0.2 mL of a saline containing the compound III (concentration of the compound III: 0.075 mg/mL) was administered, and after 1 day, the mouse was subjected to laparotomy under anesthesia by subcutaneous administration of ketamine (75 mg/kg) and medetomidine (1 mg/kg), and near-infrared fluorescence observation was performed with a near-infrared fluorescence imaging device (pde-neo, manufactured by Hamamatsu Photonics K.K., excitation wavelength: 760 nm, detection wavelength: fluorescence of 800 nm or more, the same applies hereinafter) (FIG. 1, right: near-infrared fluorescence image).
As a comparative example, a saline containing the compound III was administered to the tail vein of a normal mouse (weight: about 20 g), and after 1 day, the mouse was subjected to laparotomy under anesthesia by subcutaneous administration of ketamine (75 mg/kg) and medetomidine (1 mg/kg), and near-infrared fluorescence observation was performed with a near-infrared fluorescence imaging device (pde-neo, manufactured by Hamamatsu Photonics K.K.) (FIG. 2).
Two bladder cancer model mice (weight: about 20 g), having mouse bladder cancer cell MB49 transplanted in the bladder mucosa, and then grown for 3 weeks or 4 weeks, were used. To the tail vein of each of the mice, 0.2 mL of a saline containing the compound III (concentration of the compound III: 0.075 mg/mL) was administered. One day after the administration, the mouse was subjected to laparotomy under anesthesia by subcutaneous administration of ketamine (75 mg/kg) and medetomidine (1 mg/kg), and under observation of near-infrared fluorescence with a near-infrared fluorescence imaging device (pde-neo, manufactured by Hamamatsu Photonics K.K.), a cancer tissue site emitting near-infrared fluorescence was taken out for near-infrared fluorescence observation (FIG. 5, right: near-infrared fluorescence image). […]

[2] = test system: Human stomach cancer cell MKN45; assay: near-infrared fluorescence observation, human stomach cancer cell subcutaneous transplant mouse; details: nude mouse, tail vein 120 nmol/kg, observed from above the skin
From the text: Human stomach cancer cell MKN45 (1×10^7 cells, purchased from JCRB cell bank of National Institutes of Biomedical Innovation, Health and Nutrition) was subcutaneously transplanted into the right or left side, or the center of the back in the base of the foreleg of a nude mouse (BALB/cSlc-nu, SPF, male, 5 weeks old), and the resultant mouse was bred for 10 days to create a mouse having a stomach cancer tissue grown therein. After anesthetizing the mouse (weight: about 20 g) by subcutaneous administration of ketamine (75 mg/kg) and medetomidine (1 mg/kg), the compound III (120 nmol/kg weight) was administered through the tail vein, and near-infrared fluorescence was observed from above the skin on the back side with a near-infrared fluorescence imaging device (pde-neo, manufactured by Hamamatsu Photonics K.K.).

[3] = test system: Human esophageal cancer cell KYSE850; assay: near-infrared fluorescence observation, human esophageal cancer subcutaneous transplant mouse model; details: nude mouse, tail vein 120 nmol/kg, 30 seconds after administration
From the text: Human esophageal cancer cell KYSE850 was subcutaneously transplanted into the neck of a nude mouse (BALB/cSlc-nu, SPF, male, 5 weeks old), and the resultant mouse was bred for 18 days to create a mouse having esophageal cancer grown therein. The human esophageal cancer cell KYSE850 was purchased from JCRB cell bank of National Institutes of Biomedical Innovation, Health and Nutrition (Registration Number: JCRB1422, establisher: Graduate School of Pharmaceutical Sciences, Kyoto University, Department of Nanobio Drug Discovery, Yutaka Shimada).
The near-infrared fluorescence from a cancer tissue (circled site) was strong, and that from a normal tissue was weak (FIG. 25). It is noted that fluorescence in an elliptical frame corresponds to near-infrared fluorescence from the right and left kidneys.

[4] = test system: human tongue cancer cells CAL27; assay: near-infrared fluorescence imaging after topical administration into tumor, human tongue cancer subcutaneous transplant model; details: SCID mouse, 0.02 to 0.1 mL of 1 mg/mL, immediately after and 50 minutes after administration
Method: (§1) A human cancer cell transplant model mouse was created as follows: • (Head and neck/tongue cancer) To immunodeficient SCID mice (weight: 17 g to 23 g), about 10^6 human tongue cancer cells CAL27 (purchased from American Type Culture Collection: ATCC) were subcutaneously administered, and the resultant mice were grown for 49 days to create tumor models. • (Brain cancer/neuroblastoma) To immunodeficient SCID mice (weight: 17 g to 23 g), about 10^6 human neuroblastoma cells SH-SY5Y (purchased from ATCC) were subcutaneously administered, and the resultant mice were grown for 90 days to create tumor models. • (Brain cancer/glioblastoma) To immunodeficient SCID mice (weight: 17 g to 23 g), about 10^6 human glioblastoma cells U-251MG (obtained from European Collection of Authenticated Cell Cultures) were subcutaneously administered, and the resultant mice were grown for 90 days to create tumor models.
(§2) Subsequently, to the tumor of each of the mouse models, 0.02 to 0.1 mL of a saline containing the compound III (concentration of the compound III: 1 mg/mL) was topically administered, and fluorescence imaging was conducted transdermally with a near-infrared fluorescence camera (Fluobeam, manufactured by Fluoptics) (excitation wavelength: 780 nm, detection wavelength: 800 nm or more).

[5] = test system: human neuroblastoma cells SH-SY5Y; assay: near-infrared fluorescence imaging after topical administration into tumor, human neuroblastoma subcutaneous transplant model; details: SCID mouse, 0.02 to 0.1 mL of 1 mg/mL, 1 hour after administration
Method: as §1, §2

COC1=C(/C=C/C2=[N+](CCC(=O)NCCCO[C@H]3[C@H]4O[C@H]5[C@H](O)[C@@H](O)[C@@H](O[C@H]6[C@H](O)[C@@H](O)[C@@H](O[C@H]7[C@H](O)[C@@H](O)[C@@H](O[C@H]8[C@H](O)[C@@H](O)[C@@H](O[C@H]9[C@H](O)[C@@H](O)[C@@H](O[C@H]%10[C@H](O)[C@@H](O)[C@@H](O[C@@H]([C@@H]3O)[C@@H](CO)O4)O[C@@H]%10CO)O[C@@H]9CO)O[C@@H]8CO)O[C@@H]7CO)O[C@@H]6CO)O[C@@H]5CO)c3ccc4ccccc4c3C2(C)C)CCC/C1=C\C=C1\N(CCC(=O)NCCCO[C@H]2[C@H]3O[C@H]4[C@H](O)[C@@H](O)[C@@H](O[C@H]5[C@H](O)[C@@H](O)[C@@H](O[C@H]6[C@H](O)[C@@H](O)[C@@H](O[C@H]7[C@H](O)[C@@H](O)[C@@H](O[C@H]8[C@H](O)[C@@H](O)[C@@H](O[C@H]9[C@H](O)[C@@H](O)[C@@H](O[C@@H]([C@@H]2O)[C@@H](CO)O3)O[C@@H]9CO)O[C@@H]8CO)O[C@@H]7CO)O[C@@H]6CO)O[C@@H]5CO)O[C@@H]4CO)c2ccc3ccccc3c2C1(C)C.[Cl-] [compound III, 3-(3-{[3-(cyclomaltoheptaose-21-O-yl)propyl]amino}-3-oxopropyl)-2-{(1E)-2-[(3E)-3-{(2E)-2-[3-(3-{[3-(cyclomaltoheptaose-21-O-yl)propyl]amino}-3-oxopropyl)-1,1-dimethyl-1,3-dihydro-2H-benzo[e]indol-2-ylidene]ethylidene}-2-methoxycyclohexa-1-en-1-yl]ethene-1-yl}-1,1-dimethyl-1H-benzo[e]indol-3-ium chloride]
excision of tumor tissue with fluorescence emitted from the cancer tissue used as a guide ([1]; MB49 bladder cancer mouse model, 0.2 mL saline 0.075 mg/mL, 1 day after administration): could be appropriately excised | near-infrared fluorescence in cancer tissue of the bladder ([1]; MB49 bladder cancer mouse model, 0.2 mL saline 0.075 mg/mL, after 1 day, laparotomy): specifically observed | near-infrared fluorescence of normal tissue (bladder) ([1]; normal mouse, after 1 day, laparotomy): did not emit near-infrared fluorescence | near-infrared fluorescence of stomach cancer tissue versus normal tissue [2]: stronger in a cancer tissue than in a normal tissue | near-infrared fluorescence from esophageal cancer tissue [3]: strong | near-infrared fluorescence from normal tissue [3]: weak | retention inside the tumor (fluorescence imaging) [4]: retained inside the tumor | retention inside the tumor (fluorescence imaging) [5]: retained inside the tumor
